Measurements published in ChEMBL document CHEMBL5380773, “Novel Feleucin-K3-Derived Peptides Modified with Sulfono-γ-AA Building Blocks Targeting Pseudomonas aeruginosa and Methicillin-Resistant Staphylococcus aureus Infections” (J Med Chem, 2023).
≈ marks a conversion by molar mass, not a printed value. Calls of active or inactive are those of the source. The calls are words filed in the database; no cut-off is given here. Numbered stars: 1 amine (or outer) side, 2 acyl side, 3 side chain; on linkers, the order of the positions; unused ones are H or OH. Square brackets hold non-standard residues; d marks the D form. Peptide text beside a SMILES is read from it. * marks the point of attachment. X2 = CC(C)C[C@H](N)CN(CC(=O)[*:2])[*:1]; X1 = O=S(=O)(c1ccc(I)cc1)*

Key:
Pseudomonas aeruginosa [1] = assay: Antimicrobial activity against Pseudomonas aeruginosa ATCC 27853 incubated for 18 hrs by microdilution method; type: functional
[2] = system: Staphylococcus epidermidis; assay: Antibiofilm activity against Staphylococcus epidermidis ATCC 12228 at 4 to 8 ug/ml incubated for 24 hrs by crystal violet staining based microplate reader analysis; type: functional, organism-based; conditions: dose 4-8 µg/ml
[3] = system: Staphylococcus epidermidis; assay: Antibiofilm activity against Staphylococcus epidermidis ATCC 12228 at 2 to 4 ug/ml incubated for 24 hrs by crystal violet staining based microplate reader analysis; type: functional; conditions: dose 2-4 µg/ml, at 2 to 4 µg/mL
Pseudomonas aeruginosa [4] = assay: Bactericidal activity against Pseudomonas aeruginosa ATCC 27853 at 4 times MIC after 1 hr; type: functional, organism-based
Pseudomonas aeruginosa [5] = assay: Antibiofilm activity against Pseudomonas aeruginosa ATCC 27853 assessed as reduction in biofilm numbers at 1 times MBIC90 incubated for 24 hrs by confocal laser scanning microscopy analysis; type: functional, organism-based
Pseudomonas aeruginosa [6] = assay: Antibiofilm activity against Pseudomonas aeruginosa ATCC 27853 assessed as reduction in biofilm thickness at 1 times MBIC90 incubated for 24 hrs by confocal laser scanning microscopy analysis (reference value: 90 micrometer); type: functional
Pseudomonas aeruginosa [7] = assay: Antibiofilm activity against Pseudomonas aeruginosa ATCC 27853 at MBIC50; type: functional, organism-based
Staphylococcus aureus [8] = assay: Antibiofilm activity against methicillin resistant Staphylococcus aureus ATCC 33591 assessed as reduction in biofilm mass; type: functional, organism-based
Pseudomonas aeruginosa [9] = assay: Antibiofilm activity against Pseudomonas aeruginosa ATCC 27853 assessed as reduction in biofilm structures at MBIC90 by scanning electron microscopic analysis; type: functional, organism-based
Staphylococcus aureus [10] = assay: Bactericidal activity against Staphylococcus aureus ATCC 25923 at 4 times MIC after 1 hr by time kill assay; type: functional, organism-based
Escherichia coli = assay: Bactericidal activity against Escherichia coli ATCC 25922 at 1 to 2 times MIC after 2 to 3 hrs by time kill assay; type: functional, organism-based; conditions: time 2-3 hrs
Staphylococcus aureus [11] = assay: Induction of resistant development in Staphylococcus aureus ATCC 25923 assessed as fold increase by serial passage assay; type: functional
Staphylococcus aureus [12] = assay: Induction of resistant development in methicillin resistant Staphylococcus aureus ATCC 33591 assessed as fold increase by serial passage assay; type: functional
Staphylococcus aureus [13] = assay: Antimicrobial activity against Staphylococcus aureus in presence of LPS/LTA; type: functional
Pseudomonas aeruginosa [14] = assay: Antimicrobial activity against Pseudomonas aeruginosa in presence of LPS/LTA; type: functional
Cell membrane [15] = assay: Induction of cytoplasmic membrane depolarization in Pseudomonas aeruginosa ATCC 27853 by DiSC35 dye based fluorescence method
Cell membrane [16] = assay: Induction of membrane disruption in Pseudomonas aeruginosa ATCC 27853 assessed as membrane blebbing at low concentration incubated for 24 hrs by SEM analysis; type: subcellular
Cell membrane [17] = assay: Induction of membrane disruption in Pseudomonas aeruginosa ATCC 27853 assessed as irregular atrophy at low concentration incubated for 24 hrs by SEM analysis; type: subcellular
Cell membrane [18] = assay: Induction of membrane disruption in Pseudomonas aeruginosa ATCC 27853 assessed as cell lysis at high concentration incubated for 24 hrs by SEM analysis; type: subcellular
Cell membrane [19] = assay: Induction of membrane disruption in methicillin resistant Staphylococcus aureus ATCC 33591 assessed as irregular atrophy at low concentration incubated for 24 hrs by SEM analysis; type: subcellular
Cell membrane [20] = assay: Induction of membrane disruption in methicillin resistant Staphylococcus aureus ATCC 33591 assessed as membrane collapse at high concentration incubated for 24 hrs by SEM analysis; type: subcellular
Cell membrane [21] = assay: Induction of membrane disruption in Pseudomonas aeruginosa ATCC 27853 assessed as membrane collapse at 2 to 4 times MIC incubated for 24 hrs by TEM analysis; type: subcellular
Cell membrane [22] = assay: Induction of membrane disruption in Pseudomonas aeruginosa ATCC 27853 assessed as separation of cytoplasmic membrane at 2 to 4 times MIC incubated for 24 hrs by TEM analysis; type: subcellular
Cell membrane [23] = assay: Induction of membrane disruption in Pseudomonas aeruginosa ATCC 27853 assessed as cytoplasmic leakage at 2 to 4 times MIC incubated for 24 hrs by TEM analysis; type: subcellular
Cell membrane [24] = assay: Induction of membrane disruption in methicillin resistant Staphylococcus aureus ATCC 33591 assessed as membrane collapse at 2 to 4 times MIC incubated for 2 to 4 hrs by TEM analysis; type: subcellular; conditions: time 2-4 hrs
Cell membrane [25] = assay: Induction of membrane disruption in methicillin resistant Staphylococcus aureus ATCC 33591 assessed as separation of cytoplasmic membrane at 2 to 4 times MIC incubated for 2 to 4 hrs by TEM analysis; type: subcellular; conditions: time 2-4 hrs
Pseudomonas aeruginosa [26] = assay: Induction of ROS generation in Pseudomonas aeruginosa ATCC 27853 by DCFH-DA dye based fluorescence assay; type: functional, organism-based; conditions: TDE = time-dependent effect
Pseudomonas aeruginosa [27] = assay: Induction of DNA leakage in Pseudomonas aeruginosa ATCC 27853 after 1 to 6 hrs; type: functional, organism-based; conditions: time 1-6 hrs
Pseudomonas aeruginosa [28] = assay: Induction of protein leakage in Pseudomonas aeruginosa ATCC 27853 after 1 to 6 hrs; type: functional, organism-based; conditions: time 1-6 hrs
DNA = assay: Binding affinity to Pseudomonas aeruginosa DNA at 8 times MIC incubated for 30 mins; type: nucleic-acid assay
Pseudomonas aeruginosa [29] = assay: Antimicrobial activity against Pseudomonas aeruginosa ATCC 27853 infected in C57BL/6J mouse assessed as reduction in lung bacterial load at 2.5 mg/kg, ip measured after 72 hrs […] (reference value: 6.4 10^3CFU/mg); type: functional
Pseudomonas aeruginosa [30] = assay: Antimicrobial activity against Pseudomonas aeruginosa ATCC 27853 infected in C57BL/6J mouse assessed as reduction in IL-1beta at 2.5 mg/kg, ip measured after 72 hrs […]; type: functional, organism-based
Pseudomonas aeruginosa [31] = assay: Antimicrobial activity against Pseudomonas aeruginosa ATCC 27853 infected in C57BL/6J mouse assessed as reduction in TNF-alpha at 2.5 mg/kg, ip measured after 72 hrs […]; type: functional, organism-based
Staphylococcus aureus [32] = assay: Antimicrobial activity against methicillin resistant Staphylococcus aureus ATCC 33591 infected in skin wound mouse model assessed as reduction in inflammatory infiltration at […] by H and E staining based assay; type: functional, organism-based; conditions: dose lower 10.0 mg/kg
Staphylococcus aureus [33] = assay: Antimicrobial activity against methicillin resistant Staphylococcus aureus ATCC 33591 infected in skin wound mouse model assessed as reduction in skin wound bacterial load at 0.25 to 4 mg/kg measured on day 3 and 7 […]; type: functional, organism-based; conditions: dose 0.25-4 mg/kg, time 3-7 day
Staphylococcus aureus [34] = assay: Antimicrobial activity against methicillin resistant Staphylococcus aureus ATCC 33591 infected in skin wound mouse model assessed as reduction in ulcer at 1 to 4 mg/kg measured on day 3 and 7 by H and E staining based assay; type: functional, organism-based; conditions: dose 1-4 mg/kg, time 3-7 day
Staphylococcus aureus [35] = assay: (§1) Antimicrobial activity against methicillin resistant Staphylococcus aureus ATCC 33591 infected in BALB/c mouse assessed as biofilm eradication at 0.25 to 1 mg/kg infected with bacteria for 2 hrs prior to compound addition on 1, 24 and 48 hrs and measured after 72 hrs by H and E staining based assay; type: functional, organism-based; conditions: dose 0.25-1 mg/kg
Staphylococcus aureus [36] = assay: as §1, with “reduction in tissue damage” for “biofilm eradication”; type: functional, organism-based; conditions: dose 0.25-1 mg/kg

## CC(C)C[C@H](N)CN(CC(=O)N[C@@H](CCCCN)C(=O)N[C@@H](CC(C)C)C(=O)N[C@@H](CC(C)C)C(=O)N[C@@H](CCCCN)C(=O)N[C@@H](CCCCN)C(=O)N[C@@H](CC(C)C)C(=O)N[C@@H](CC(C)C)C(N)=O)S(=O)(=O)c1ccc(I)cc1 (X1-[X2]KLLKKLL-NH2)
Pseudomonas aeruginosa [1]
  MIC: 3 µg/mL (≈ 2.35 µM)
[2]
  Activity: Active
[3]
  Activity: 50%
Pseudomonas aeruginosa [4]
  Activity: Active
Pseudomonas aeruginosa [5]
  Activity: Active
Pseudomonas aeruginosa [6]
  Activity: 20 um
Pseudomonas aeruginosa [7]
  Activity: Active
Staphylococcus aureus [8]
  Activity: Active
Pseudomonas aeruginosa [9]
  Activity: Active
Staphylococcus aureus [10]
  Activity: Active
Escherichia coli
  Activity: Active
Staphylococcus aureus [11]
  fold change (FC): 2
Staphylococcus aureus [12]
  fold change (FC): 2
Staphylococcus aureus [13]
  MIC: ≥ 16 µg/mL
Pseudomonas aeruginosa [14]
  MIC: ≥ 64 µg/mL
Cell membrane [15]
  Activity: Active
Cell membrane [16]
  Activity: Active
Cell membrane [17]
  Activity: Active
Cell membrane [18]
  Activity: Active
Cell membrane [19]
  Activity: Active
Cell membrane [20]
  Activity: Active
Cell membrane [21]
  Activity: Active
Cell membrane [22]
  Activity: Active
Cell membrane [23]
  Activity: Active
Cell membrane [24]
  Activity: Active
Cell membrane [25]
  Activity: Active
Pseudomonas aeruginosa [26]
  Activity: Tde
Pseudomonas aeruginosa [27]
  Activity: Dose-Dependent Effect
Pseudomonas aeruginosa [28]
  Activity: Dose-Dependent Effect
DNA
  Activity: Active
Pseudomonas aeruginosa [29]
  Activity: 3 10^3CFU/mg
Pseudomonas aeruginosa [30]
  Activity: Active
Pseudomonas aeruginosa [31]
  Activity: Active
Staphylococcus aureus [32]
  Activity: Active
Staphylococcus aureus [33]
  Activity: Active
Staphylococcus aureus [34]
  Activity: Active
Staphylococcus aureus [35]
  Activity: Active
Staphylococcus aureus [36]
  Activity: Active
